One assay relates to normotensive rat. Nature of the assay: blood pressure lowering effect in normotensive rats (i.v.). It is filed as in vivo. To be noted: iv, read-out: dose that lowers blood pressure (as low as). The method, then:
(§1) Indicative of in vivo adenosine receptor agonist activity, the hypotensive activity of the compounds of the invention as well as their effect on heart rate can be measured in normotensive or spontaneous hypertensive rats on intravenous or oral administration.
Typically, the blood pressure lowering effect in normotensive rats can be determined as follows:
Adult male rats weighing 300-400 g are anesthetized using Inactin (100 mg/kg, i.p.). A femoral artery and contralateral vein are cannulated for direct blood pressure measurement and i.v. drug administration, respectively. Animals are allowed a 15 minute equilibration period before testing. Vehicle (1 ml/kg, i.v.) is administered over a 30 second period followed by a 0.3 ml saline flush administered over a 30 second period. Changes in diastolic blood pressure are recorded using a Beckman polygraph while heart rate is recorded as a derivative of the blood pressure pulse. The test compound is administered in the same manner as vehicle and a dose response curve is established. Percent changes in heart rate and blood pressure are recorded.

For assay [1], the system named is spontaneous hypertensive rat. Nature of the assay: blood pressure lowering effect in the spontaneous hypertensive rat (oral). It is filed as in vivo. To be noted: p.o., read-out: dose that lowers blood pressure (as low as). The method, then: as §1
The blood pressure lowering effect in the spontaneous hypertensive rat is determined on oral administration.

Assay [2] deals with T1, adenosine-2 (A-2) receptor (Rattus norvegicus, UniProt P30543).
T1 construct: striatal membrane preparations from corpus striatum of male Sprague-Dawley rats; from tissue; host or cells: corpus striatum membranes of male Sprague-Dawley rats
Kind of assay: in vitro adenosine-2 (A-2) receptor binding: inhibition of specific 3H-NECA binding in rat striatal membranes. On the set-up: species or system male Sprague-Dawley rats. To be noted: 4 nM 3H-NECA, in presence of 50 nM cyclopentyladenosine.
Experimental: The concentration of a particular compound required to displace the specific binding of 4 nM ^3 H-NECA is determined in the presence of 50 nM cyclopentyladenosine.

Structures can show the parent of a compound that is named as a salt.

T1 sequence (P30543 whole entry): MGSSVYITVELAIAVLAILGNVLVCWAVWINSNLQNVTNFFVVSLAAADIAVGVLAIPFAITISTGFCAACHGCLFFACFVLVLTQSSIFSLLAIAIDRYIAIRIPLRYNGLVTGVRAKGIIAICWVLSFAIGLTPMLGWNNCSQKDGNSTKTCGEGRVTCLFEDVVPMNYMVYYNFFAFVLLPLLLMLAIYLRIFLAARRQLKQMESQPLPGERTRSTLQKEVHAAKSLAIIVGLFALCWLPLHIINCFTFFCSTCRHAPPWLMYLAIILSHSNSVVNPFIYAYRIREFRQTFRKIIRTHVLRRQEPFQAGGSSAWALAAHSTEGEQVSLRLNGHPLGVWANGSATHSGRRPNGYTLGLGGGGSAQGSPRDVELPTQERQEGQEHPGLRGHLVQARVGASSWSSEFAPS

Take `CCNC(=O)[C@H]1O[C@@H](n2cnc3c(N)nc(NCCc4ccc(CCC(=O)O)cc4)nc32)[C@H](O)[C@@H]1O` [Example 2g, 2-[p-(2-carboxyethyl)-2-phenethylamino]-adenosine5'-(N-ethyl)-carboxamide]: the minimal effective dose with normotensive rat was approximately 0.005 mg/kg; in assay [1] it was approximately 3 mg/kg.

`CCNC(=O)[C@H]1O[C@@H](n2cnc3c(N)nc(NCCC4CCCCC4)nc32)[C@H](O)[C@@H]1O` [Example 2n, 2-(2-cyclohexylethylamino)-adenosine-5'-(N-ethyl)carboxamide hydrochloride]: in assay [2], the IC50 (in general, the concentration that gives 50% inhibition) is approximately 13 nM.

(Values after patent publication US4968697A, “2-substituted adenosine 5'-carboxamides as antihypertensive agents” (Ciba-Geigy Corporation, priority 1989, dated 1990).)
